Calls of active or inactive are those of the source.
What was measured:
[1] = cells
[2] = Luminescence-based cell-based high throughput dose response assay to identify activators of the DAF-12 from the parasite S. stercoralis (ssDAF-12).; type: functional
[3] = target: T1, Oxysterols receptor LXR-beta (Homo sapiens, UniProt P55055); type: functional, cell-based;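 further: Cell-based luminescence dose-response assay of agonist activity at LXR, run as a confirmatory counterscreen to a daf-12 agonist screen; agonist potency from rising luciferase signal of a Gal4-LXR reporter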
T1 sequence (P55055 whole entry): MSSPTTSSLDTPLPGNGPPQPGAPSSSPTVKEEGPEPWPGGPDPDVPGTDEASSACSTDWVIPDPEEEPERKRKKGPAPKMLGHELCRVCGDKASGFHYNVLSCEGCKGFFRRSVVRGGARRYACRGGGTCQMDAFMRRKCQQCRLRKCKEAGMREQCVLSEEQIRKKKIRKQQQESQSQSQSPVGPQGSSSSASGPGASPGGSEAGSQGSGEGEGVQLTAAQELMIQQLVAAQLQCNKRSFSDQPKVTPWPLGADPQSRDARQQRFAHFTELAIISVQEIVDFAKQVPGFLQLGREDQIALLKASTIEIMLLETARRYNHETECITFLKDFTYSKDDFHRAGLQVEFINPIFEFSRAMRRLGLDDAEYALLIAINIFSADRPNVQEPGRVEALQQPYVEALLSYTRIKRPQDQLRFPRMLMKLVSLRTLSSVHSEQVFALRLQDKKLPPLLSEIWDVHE

[4] = target: T1, Oxysterols receptor LXR-beta; experiment: LXR agonists, Gal4 luciferase reporter, dose response, counter-screen for ssDAF-12 agonist project, cell-based, luminescence, HEK293, S. stercoralis campaign (AID 720737); type: functional; conditions: read-out: IC50 (the source's name)
[5] = HEK293 Cytotoxicity Assay Measured in Cell-Based System Using Plate Reader - 7071-01_Inhibitor_Dose_CherryPick_Activity_Set2.; type: functional
[6] = test system: HEK293; experiment: viability loss in HEK293T cells – cell-based, ATP luminescence, cherry-pick samples, cytotoxicity control, dose response (AID 687005); type: functional; conditions: Homo sapiens;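 further: cells exposed to compound for 48 hours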
[7] = target: E3 ubiquitin-protein ligase Mdm2 (Homo sapiens, UniProt Q00987); experiment: MDM2-luc reporter signal enhancers, multi-concentration potency testing, MDM2 ubiquitin-protein ligase inhibitor program, whole-cell format, luminescence detection, 384-well microplate (AID 1394); type: functional;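 further: MDM2 E3 inhibitors raise luminescence so EC50 is for signal enhancement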
[8] = cells; conditions: HEK293
[9] = toxicity to HepG2 liver cells – cell-based, plate reader, dry powder, set 6, cytotoxicity control, dose response (AID 743311); type: functional
[10] = HIV-1 Vif–A3G interaction blockers – biochemical, TR-FRET, GST-Vif 1-94, biotin-A3G peptide, dose response retest, primary screen (AID 1117319); type: functional;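 further: TR-FRET signal of purified GST-Vif binding a biotinylated A3G peptide; inhibitors lower the FRET signal by blocking Vif and A3G binding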
[11] = growth inhibition of PfATP4-mutant resistant parasites – NITD609-resistant line, SYBR Green, dry powder, dose response (AID 1159571); type: functional, cell-based;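 further: parasites synchronized at ring stage by sorbitol before testing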
[12] = growth inhibition of yeast DHODH-expressing 3D7 parasites – SYBR Green, dry powder samples, dose response (AID 1159570); type: functional, cell-based;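 further: parasite growth measured after 72 hours of compound exposure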
[13] = Plasmodium falciparum Dd2 Sybr green parasite growth Measured in Cell-Based and Microorganism Combination System Using Plate Reader - 2153-01_Inhibitor_Dose_DryPowder_Activity_Set3.; type: functional
[14] = Dd2 malaria parasite growth inhibition potency – SYBR Green, dry powder samples, dose response (AID 1159566); type: functional, cell-based;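 further: potency for growth inhibition with lower SYBR green DNA signal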
[15] = P. falciparum Dd2 growth inhibitors, dose response, SYBR Green, cherry-picked samples (AID 1159567); type: functional, cell-based
[16] = target: Metabotropic glutamate receptor 7 (Homo sapiens, UniProt Q14831); experiment: potentiation of glutamate EC20 at mGlu7 – cell-based, calcium mobilization, Galpha15, dose response (AID 743384); type: functional
[17] = Counterscreen for activators of the function of SWI/SNF related, matrix associated, actin dependent regulator of chromatin, subfamily a, member 2 (SMARCA2, BRM): Luminescence-based cell-based high throughput dose response assay to identify non-selective compounds using the VP16 reporter assay.; type: functional
[18] = target: SWI/SNF-related matrix-associated actin-dependent regulator of chromatin subfamily A member 2 (Homo sapiens, UniProt P51531); experiment: Luminescence-based cell-based high throughput dose response assay to identify activators of the function of SWI/SNF related, matrix associated, actin dependent regulator of chromatin, subfamily a, member 2 (SMARCA2, BRM).; type: functional
[19] = cells; conditions: A549
[20] = viability loss in HepG2 liver cells – cell-based, ATP luminescence, cherry-pick, set 6, cytotoxicity control, dose response (AID 1053125); type: functional
[21] = cells; conditions: HEK293; remark: listed apart in the source
[22] = target: Transthyretin (Homo sapiens, UniProt P02766); experiment: Luminescence-based cell-based high throughput dose response assay to identify activators of Transthyretin (TTR) transcription.; type: functional
[23] = COV434 cell viability loss – plate reader, dry powder, SA7, cytotoxicity control for PAX8 inhibitor project, dose response (AID 743145); type: functional, cell-based
[24] = inhibitors acting on PAX2 in cells – cell-based, plate reader, dry powder samples, selectivity assay for PAX8 inhibitor project, dose response (AID 743048); type: functional;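 further: HEK293 cells carrying a WT1 promoter luciferase reporter driven by expressed Pax2; potency is for inhibition of Pax2 driven reporter signal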
[25] = OVCAR4 cell viability loss – plate reader, dry powder, SA11, cytotoxicity control for PAX8 inhibitor project, dose response (AID 743150); type: functional, cell-based; conditions: OVCAR-4
[26] = OV-90 cell viability loss – plate reader, dry powder, SA8, PAX8 inhibitor project, dose response (AID 743149); type: functional, cell-based
[27] = OVCAR-3 cell viability loss – plate reader, dry powder samples, PAX8 inhibitor project, dose response (AID 743044); type: functional, cell-based
[28] = COV362 cell viability loss – plate reader, dry powder, SA12, cytotoxicity control for PAX8 inhibitor project, dose response (AID 743144); type: functional, cell-based
[29] = toxicity toward immortalized ovarian surface epithelium – cell-based, plate reader, dry powder samples, cytotoxicity control for PAX8 inhibitor project, dose response (AID 743045); type: functional
[30] = A2780 cell killing – plate reader, dry powder samples, cytotoxicity control, dose response (AID 743046); type: functional, cell-based
[31] = PAX5 cellular inhibition readout – cell-based, plate reader, dry powder samples, selectivity assay for PAX8 inhibitor project, dose response (AID 743047); type: functional;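 further: HEK293 cells carrying a Pax5 driven CD19 promoter luciferase reporter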
[32] = OVCAR8 cell viability loss – plate reader, dry powder samples, PAX8 project, dose response (AID 743197); type: functional, cell-based; conditions: OVCAR-8
[33] = PAX8-dependent cell viability loss – plate reader, dry powder, dose response (AID 743049); type: functional, cell-based
[34] = target: Paired box protein Pax-8 (Homo sapiens, UniProt Q06710); experiment: PAX8 transcriptional activity inhibition in RMG-I – RMG-I cells, luciferase, cherry-pick, dose response (AID 687027); type: functional, cell-based;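 further: luciferase reporter driven by Pax8 target thyroperoxidase promoter measured by SteadyGlo luminescence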
[35] = IGROV1 cell killing – plate reader, dry powder samples, PAX8 inhibitor project, dose response (AID 743043); type: functional, cell-based; conditions: IGROV-1

Chain of SWI/SNF-related matrix-associated actin-dependent regulator of chromatin subfamily A member 2 (P51531 whole entry): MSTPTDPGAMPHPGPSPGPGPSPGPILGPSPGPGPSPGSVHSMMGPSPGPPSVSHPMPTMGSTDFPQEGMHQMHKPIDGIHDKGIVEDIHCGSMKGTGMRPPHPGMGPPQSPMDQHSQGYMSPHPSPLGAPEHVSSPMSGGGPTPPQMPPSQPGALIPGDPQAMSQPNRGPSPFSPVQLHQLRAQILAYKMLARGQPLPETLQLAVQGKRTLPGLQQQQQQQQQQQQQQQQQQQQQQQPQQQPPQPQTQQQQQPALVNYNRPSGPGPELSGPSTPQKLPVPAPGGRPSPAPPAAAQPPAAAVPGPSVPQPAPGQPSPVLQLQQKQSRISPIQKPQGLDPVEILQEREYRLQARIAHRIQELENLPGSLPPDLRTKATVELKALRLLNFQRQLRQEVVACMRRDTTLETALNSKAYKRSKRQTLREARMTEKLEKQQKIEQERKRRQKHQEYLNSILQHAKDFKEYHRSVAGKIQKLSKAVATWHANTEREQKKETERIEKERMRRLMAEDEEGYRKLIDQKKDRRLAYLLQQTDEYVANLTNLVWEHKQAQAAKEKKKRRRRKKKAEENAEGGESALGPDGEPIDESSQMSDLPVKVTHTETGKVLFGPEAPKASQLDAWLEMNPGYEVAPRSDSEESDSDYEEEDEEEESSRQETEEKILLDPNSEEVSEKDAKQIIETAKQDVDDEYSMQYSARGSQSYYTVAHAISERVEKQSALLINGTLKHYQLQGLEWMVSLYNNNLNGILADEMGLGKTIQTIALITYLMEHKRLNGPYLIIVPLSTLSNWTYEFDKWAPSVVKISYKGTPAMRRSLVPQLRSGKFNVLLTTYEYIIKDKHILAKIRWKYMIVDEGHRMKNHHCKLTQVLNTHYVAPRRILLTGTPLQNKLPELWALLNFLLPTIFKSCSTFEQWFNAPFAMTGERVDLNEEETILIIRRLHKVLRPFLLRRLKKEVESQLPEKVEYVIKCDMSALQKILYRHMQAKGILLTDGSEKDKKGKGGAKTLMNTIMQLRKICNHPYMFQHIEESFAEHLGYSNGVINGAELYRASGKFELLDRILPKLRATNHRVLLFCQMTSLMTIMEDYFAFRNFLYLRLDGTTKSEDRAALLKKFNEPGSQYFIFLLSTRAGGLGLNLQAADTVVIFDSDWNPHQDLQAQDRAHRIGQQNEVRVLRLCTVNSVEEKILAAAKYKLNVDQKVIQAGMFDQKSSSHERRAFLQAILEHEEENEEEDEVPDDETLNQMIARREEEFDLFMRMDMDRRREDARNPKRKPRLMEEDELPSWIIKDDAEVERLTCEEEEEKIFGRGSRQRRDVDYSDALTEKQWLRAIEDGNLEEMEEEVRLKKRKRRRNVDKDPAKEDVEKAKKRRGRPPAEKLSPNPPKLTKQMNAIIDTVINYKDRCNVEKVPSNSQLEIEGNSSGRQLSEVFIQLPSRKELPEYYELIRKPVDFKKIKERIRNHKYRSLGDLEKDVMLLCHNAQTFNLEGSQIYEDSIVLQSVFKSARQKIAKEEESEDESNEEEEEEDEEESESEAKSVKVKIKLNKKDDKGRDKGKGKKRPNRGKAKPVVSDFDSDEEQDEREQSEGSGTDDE
Chain of Metabotropic glutamate receptor 7 (Q14831 whole entry): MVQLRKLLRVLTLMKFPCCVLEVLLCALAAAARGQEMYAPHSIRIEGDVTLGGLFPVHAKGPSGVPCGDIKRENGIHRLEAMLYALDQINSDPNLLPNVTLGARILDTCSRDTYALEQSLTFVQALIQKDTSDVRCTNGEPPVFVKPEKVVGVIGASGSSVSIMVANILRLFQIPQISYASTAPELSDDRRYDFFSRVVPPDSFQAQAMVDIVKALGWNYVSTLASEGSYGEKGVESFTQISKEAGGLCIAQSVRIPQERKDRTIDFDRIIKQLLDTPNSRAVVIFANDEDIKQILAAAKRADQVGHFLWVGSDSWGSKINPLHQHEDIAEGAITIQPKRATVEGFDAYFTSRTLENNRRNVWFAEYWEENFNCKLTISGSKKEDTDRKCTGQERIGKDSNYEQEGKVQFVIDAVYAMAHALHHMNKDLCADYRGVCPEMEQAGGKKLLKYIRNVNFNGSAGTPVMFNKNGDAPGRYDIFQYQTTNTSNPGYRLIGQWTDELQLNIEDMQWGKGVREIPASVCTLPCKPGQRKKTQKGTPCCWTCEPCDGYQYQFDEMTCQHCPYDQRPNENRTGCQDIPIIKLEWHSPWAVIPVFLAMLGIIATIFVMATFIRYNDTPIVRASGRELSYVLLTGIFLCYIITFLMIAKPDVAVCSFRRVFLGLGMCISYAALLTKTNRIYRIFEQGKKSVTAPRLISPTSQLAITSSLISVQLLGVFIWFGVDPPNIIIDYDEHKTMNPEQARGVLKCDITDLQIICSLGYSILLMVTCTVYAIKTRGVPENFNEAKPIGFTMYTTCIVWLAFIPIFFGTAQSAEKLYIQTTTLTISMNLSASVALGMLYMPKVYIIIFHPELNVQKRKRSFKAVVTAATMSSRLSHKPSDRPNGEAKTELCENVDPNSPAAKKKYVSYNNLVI
Chain of Paired box protein Pax-8 (Q06710 whole entry): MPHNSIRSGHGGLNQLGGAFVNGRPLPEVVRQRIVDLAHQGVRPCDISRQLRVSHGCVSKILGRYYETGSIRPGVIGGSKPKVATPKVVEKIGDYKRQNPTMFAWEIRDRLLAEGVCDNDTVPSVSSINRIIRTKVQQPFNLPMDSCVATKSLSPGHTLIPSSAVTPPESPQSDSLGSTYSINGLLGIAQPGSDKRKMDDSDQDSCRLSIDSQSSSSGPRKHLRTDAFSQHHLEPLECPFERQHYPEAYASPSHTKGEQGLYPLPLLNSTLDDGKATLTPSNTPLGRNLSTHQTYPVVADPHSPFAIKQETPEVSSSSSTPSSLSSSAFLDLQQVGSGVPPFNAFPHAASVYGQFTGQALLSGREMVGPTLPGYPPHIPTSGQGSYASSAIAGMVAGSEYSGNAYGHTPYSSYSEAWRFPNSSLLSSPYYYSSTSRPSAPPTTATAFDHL
Chain of E3 ubiquitin-protein ligase Mdm2 (Q00987 whole entry): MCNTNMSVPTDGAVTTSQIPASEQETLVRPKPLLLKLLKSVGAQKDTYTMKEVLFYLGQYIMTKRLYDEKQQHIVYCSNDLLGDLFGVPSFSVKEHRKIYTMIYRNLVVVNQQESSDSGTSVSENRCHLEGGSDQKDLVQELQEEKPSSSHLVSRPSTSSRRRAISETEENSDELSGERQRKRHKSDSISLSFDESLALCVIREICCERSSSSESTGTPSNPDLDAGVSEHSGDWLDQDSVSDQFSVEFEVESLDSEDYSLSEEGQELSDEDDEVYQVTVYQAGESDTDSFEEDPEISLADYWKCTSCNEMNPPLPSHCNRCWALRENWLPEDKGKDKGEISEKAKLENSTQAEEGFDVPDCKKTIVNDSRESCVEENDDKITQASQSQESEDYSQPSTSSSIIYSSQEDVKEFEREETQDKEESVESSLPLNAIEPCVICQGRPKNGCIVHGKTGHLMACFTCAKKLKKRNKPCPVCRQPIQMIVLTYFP

For `Clc1ccc(-c2nc3n(n2)Cc2ccccc2-3)cc1`, which EC50 [1] is on record?
The EC50 was > 67.5 µM (inactive).

What about the IC50 [2] of the same molecule?
The IC50 was > 67.5 µM (inactive).

What about the EC50 [3] of the same molecule?
Its EC50 is > 67.5 µM (inactive).

And the EC50 [4]?
The EC50 was > 67.5 µM (inactive).

For `CCCN1C[C@H](C)[C@@H](OC)CN(C)C(=O)c2cc(NC(=O)c3cccc(F)c3)ccc2OC[C@@H]1C`, which AC50 [5] is on record?
The AC50 was 19.8 µM (active).

What about the AC50 [6] of the same molecule?
Its AC50 is 19.8 µM (active).

For `Cc1cc(C(=O)CSc2nnc(Nc3ccccc3)s2)c(C)n1CC1CCCO1` (stereo not given), which EC50 [7] is on record?
Its EC50 is 20.4 µM (not active).

What does the source list for `c1ccc(COc2ccc(OCCn3cnc4ccccc43)cc2)cc1`?
AC50 [8]: > 52 µM (inactive); AC50 [9]: > 52 µM (inactive)

Which IC50 [10] does the source give for `Cc1cc(NC(=O)Cn2cnc3c(nnn3-c3cccc(F)c3)c2=O)no1` here?
Its IC50 is > 100 µM (active).

Which AC50 [11] does the source give for `CO[C@@H]1CN(C)C(=O)c2ccc(NC(=O)Nc3ccccc3F)cc2OC[C@@H](C)N(CCC(F)(F)F)C[C@H]1C` here?
The AC50 was 1.92 µM (active).

And the AC50 [12]?
The AC50 was 6.04 µM (active).

And the AC50 [13]?
Its AC50 is 0.567 µM (active).

What about the AC50 [14] of the same molecule?
The AC50 was 0.51 µM (active).

And the AC50 [15]?
Its AC50 is 1.57 µM (active).

For `COc1ccc(CSCC(=O)c2cc(C)n(-c3ccc(OC(F)F)cc3)c2C)cc1`, which EC50 [16] is on record?
The EC50 was 10 µM (active).

For `N#Cc1ccc(/C=C\c2[nH]ccc3c4ccccc4nc2-3)cc1`, which EC50 [17] is on record?
The EC50 was > 91.2 µM (inactive).

What about the EC50 [18] of the same molecule?
The EC50 was > 91.2 µM (inactive).

What about the AC50 [19] of the same molecule?
Its AC50 is 24.2 µM (active).

What about the AC50 [20] of the same molecule?
Its AC50 is 40.7 µM (active).

What about the AC50 [21] of the same molecule?
The AC50 was > 52 µM (inactive).

With `O=C(/C(=C(\[S-])Nc1ccc(SC(F)F)cc1)[n+]1ccccc1)c1cc(Cl)ccc1Cl` as the molecule, how does the EC50 [22] read?
The EC50 was > 167 µM (inactive).

Which AC50 [23] does the source give for `CN(C[C@H]1N[C@@H](CO)[C@@H]1c1ccc(-c2cccnc2)cc1)C(=O)c1ccccc1` here?
The AC50 was 11.3 µM (active).

What about the AC50 [24] of the same molecule?
The AC50 was > 32 µM (inactive).

And the AC50 [25]?
Its AC50 is 5.14 µM (active).

And the AC50 [26]?
Its AC50 is 14.5 µM (active).

What about the AC50 [27] of the same molecule?
The AC50 was 7.22 µM (active).

And the AC50 [28]?
The AC50 was 7.42 µM (active).

What about the AC50 [29] of the same molecule?
Its AC50 is 23.4 µM (active).

And the AC50 [30]?
Its AC50 is 13.8 µM (active).

And the AC50 [31]?
The AC50 was 15.8 µM (active).

And the AC50 [32]?
Its AC50 is 8.64 µM (active).

And the AC50 [33]?
Its AC50 is 9.82 µM (active).

And the AC50 [34]?
Its AC50 is 2.89 µM (active).

What about the AC50 [35] of the same molecule?
The AC50 was 5.83 µM (active).
